# Data taken from patent US20230226092A1, “CANCER […] ON G[…]” (NuCana plc, priority 2015, published 2023).
# Test system: advance progressive cancers that are refractory to, or have relapsed on, all conventional therapies
# Test: ProGem1 dose escalation clinical study: clinical response (RECIST 1.1, tumour markers)
# Assay type: in vivo, human
# Set-up: CA125 level / CA19.9 / CEA / CA125 / Tumour volume / CA 15.3 tumour marker / inhibin B: unit not given here
# Details: for CA 15.3 tumour marker: 726 at base; for inhibin B: 1,038 prior to study entry
# Excerpt: The following data were generated in clinical studies of NUC-1031 in human patients with advance progressive cancers that are refractory to, or have relapsed on, all conventional therapies that have been used to date. The results clearly illustrate the ability of NUC-1031 to successfully treat refractory cancers.
# Although the primary objectives of the dose escalation part of the study were to determine the Recommended Phase II Dose (RP2D) and safety profile, secondary objectives included determining the PK profile, however effective treatment of patients with a range of refractory cancers has also been observed as part of this study.
# A total of 68 patients have been entered into this dose escalation study, of which 49 were evaluable for clinical response in that they have received at least 2 Cycles of NUC-1031 and were therefore eligible for a RECIST 1.1 assessment.
# NUC-1031 was administered as a 5 to 30 minute intravenous slow bolus injection. • Schedule A: NUC-1031 was administered on days 1, 8, 15 of a 4 weekly Cycle. • Schedule B: NUC-1031 was administered on days 1, 5, 8, 12, 15, 19, of a 4 weekly Cycle.
# Evaluable patients were patients that received ≥ 2 Cycles of NUC-1031 and were therefore eligible for a RECIST 1.1 assessment at the end of Cycle 2. Where the disease response duration, measured in months, is followed by a “+” this indicates ongoing disease control as of the latest cut-off date.
# [1] = evaluable patients n = 49, RECIST 1.1
substance,measurement,setting,value
gemcitabine-[phenyl-benzoxy-L-alaninyl)]-phosphate [NUC-1031],Reduction in tumour volume,"Patient 037, pancreatic cancer, CT scan on 29th April 2014",30%
same,Reduction in tumour volume,"Patient 037, pancreatic cancer, end of Cycle 2 CT scan",18.4%
same,CEA,"Patient 037, pancreatic cancer, from 536 at baseline",42
same,CA19.9,"Patient 037, pancreatic cancer, from 15,000 at baseline","4,000"
same,Response to RECIST,"Patient 038, ovarian cancer, 900 mg/m^2 weekly",Progressive Disease
same,Increase in tumour volume,"Patient 038, ovarian cancer, end of Cycle 2 scan",25%
same,Disease response duration,"Patient 040, cholangiocarcinoma",4 months
same,CA19.9,"Patient 040, cholangiocarcinoma, 4th June, from 664 at baseline",155
same,Response to RECIST,"Patient 040, cholangiocarcinoma, 1,000, then 900 mg/m^2 weekly",Stable Disease
same,Tumour volume,"Patient 040, cholangiocarcinoma, end of Cycle 2 CT scan, from 85 at base",82.1
same,Disease response duration,"Patient 041, breast cancer",4 months
same,Symptomatic benefit,"Patient 041, breast cancer",managed to reduce opioids significantly
same,CA 15.3 tumour marker,"Patient 041, breast cancer, 19th May 2014",824
same,Response to RECIST,"Patient 041, breast cancer, 900, then 825 mg/m^2 weekly",Stable Disease
same,CA 15.3 tumour marker,"Patient 041, breast cancer, at C2",845
same,Response to RECIST,"Patient 042, cholangiocarcinoma, 900 mg/m^2 weekly",Progressive Disease
same,Reduction in tumour volume of primary target lesion,"Patient 042, cholangiocarcinoma, end of Cycle 2 CT scan",9%
same,Disease response duration,"Patient 043, ovarian cancer",13 months
same,PET scan finding,"Patient 043, ovarian cancer, 7th April 2014",stable disease and SUV had gone down in some target tumours
same,CA125,"Patient 043, ovarian cancer, 15th July, from 1,099 at baseline",910
same,Response to RECIST,"Patient 043, ovarian cancer, 900, then 750 mg/m^2 weekly",Stable Disease
same,CA125,"Patient 043, ovarian cancer, beginning of Cycle 2, from 1.099 at baseline",783
same,Reduction in tumour volume from baseline,"Patient 043, ovarian cancer, end of Cycle 6 CT scan",10%
same,Volume of fluid drained from pleural effusion,"Patient 043, ovarian cancer, was 300ml per week",150 ml per week
same,Disease response duration,"Patient 044, lung cancer",5 months
same,Response to RECIST,"Patient 044, lung cancer (adenocarcinoma), 900, then 825 mg/m^2 weekly",Stable Disease
same,Reduction in tumour volume,"Patient 044, lung cancer, end of Cycle 2 CT scan",10%
same,Disease response duration,"Patient 046, adrenal carcinoma",11 months
same,Response to RECIST,"Patient 046, adrenal carcinoma, 1,000, then 900, 750, 625 mg/m^2 weekly",Stable Disease
same,Reduction in tumour volume from baseline,"Patient 046, adrenal carcinoma, end of Cycle 6 CT scan",12.6%
same,Disease response duration,"Patient 048, ovarian cancer",8 months
same,Response to RECIST,"Patient 048, ovarian cancer (granulosa cell tumour), 1,000, then 900, 825, 750, 625 mg/m^2 weekly",Stable Disease
same,inhibin B,"Patient 048, ovarian cancer, August",1148
same,inhibin B,"Patient 048, ovarian cancer, July 2014","1,106"
same,inhibin B,"Patient 048, ovarian cancer, September",1053
same,PET scan finding,"Patient 048, ovarian cancer, end of Cycle 1",stable disease and reduction in SUV at target sites
same,Symptomatic benefit,"Patient 050 (202), oesophageal cancer",improvement in their dysphagia
same,Response to RECIST,"Patient 050 (202), oesophageal cancer, 900 mg/m^2 weekly",Progressive Disease
same,Response to RECIST,"Patient 051 (203), anal cancer, 900 mg/m^2 weekly",Progressive Disease
same,Disease response duration,"Patient 052 (204), oesophageal cancer",5 months
same,Response to RECIST,"Patient 052 (204), oesophageal cancer, 900, then 825 mg/m^2 weekly",Stable Disease
same,Response to RECIST,"Patient 053 (205), colon cancer, 900 mg/m^2 weekly",Progressive Disease
same,Response to RECIST,"Patient 055 (207), ovarian cancer, 900, then 825, 625 mg/m^2 weekly",Stable Disease
same,CA125,"Patient 055 (207), ovarian cancer, January 2015, 36 at baseline",24
same,Reduction in tumour volume from baseline,"Patient 055 (207), ovarian cancer, end of Cycle 6 CT scan",18%
same,Disease response duration,"Patient 055 (207), ovarian cancer, ongoing",≥ 10 months
same,Disease response duration,"Patient 057 (209), ovarian cancer",5 months
same,Response to RECIST,"Patient 057 (209), ovarian cancer, 900, then 825, 750 mg/m^2 weekly",Stable Disease
same,Reduction in tumour volume from baseline,"Patient 057 (209), ovarian cancer, end of Cycle 4 CT scan",10%
same,Disease response duration,"Patient 058 (210), lung cancer",4 months
same,Response to RECIST,"Patient 058 (210), lung cancer, 825, then 750 mg/m^2 weekly",Stable Disease
same,Disease response duration,"Patient 059 (211), cervical cancer",7 months
same,Response to RECIST,"Patient 059 (211), cervical cancer, 825, then 750, 625 mg/m^2 weekly",Stable Disease
same,Response to RECIST,"Patient 060 (212), pancreatic cancer, 825 mg/m^2 weekly",Progressive Disease
same,Disease response duration,"Patient 061 (213), colorectal cancer",3 months
same,Response to RECIST,"Patient 061 (213), colorectal cancer, 825 mg/m^2 weekly",Stable Disease
same,Reduction in tumour volume,"Patient 061 (213), colorectal cancer, end of Cycle 2 CT scan",2%
same,Disease response duration,"Patient 063 (215), ovarian cancer",3 months
same,Response to RECIST,"Patient 063 (215), ovarian cancer, 825, then 750, 625 mg/m^2 weekly",Stable Disease
same,Response to RECIST,"Patient 064 (216), trophoblastic cancer, 825 mg/m^2 weekly",Progressive Disease
same,Response to RECIST,"Patient 066 (218), colorectal cancer, 825, then 750, 625 mg/m^2 weekly",Stable Disease
same,Reduction in tumour volume from baseline,"Patient 066 (218), colorectal cancer, CT scan on 30th December",16%
same,Disease response duration,"Patient 066 (218), colorectal cancer, ongoing",≥ 8 months
same,Increase from baseline (EOS CT scan),"Patient 067 (219), osteosarcoma",1%
same,Response to RECIST,"Patient 067 (219), osteosarcoma, 825, then 750 mg/m^2 weekly",Stable Disease
same,Disease response duration,"Patient 067 (219), osteosarcoma, ongoing",≥ 7 months
same,Response to RECIST,"Patient 068 (220), lung cancer, 825 mg/m^2 weekly",Progressive Disease
same,Response to RECIST,"Patient 069 (221), colorectal cancer, 825, then 750, 675, 625, 500 mg/m^2 weekly",Stable Disease
same,PET scan finding,"Patient 069 (221), colorectal cancer, PET scan on 30/10",Partial Response
same,Reduction in tumour volume from baseline,"Patient 069 (221), colorectal cancer, end of C2 CT scan",11%
same,Reduction in tumour volume from baseline,"Patient 069 (221), colorectal cancer, end of C4 CT scan",26%
same,Disease response duration,"Patient 069 (221), colorectal cancer, ongoing",≥ 7 months
same,Clinical examination of metastases,"Patient 069 (221), colorectal cancer, pre C2 examination",cutaneous and sub cutaneous metastases were greatly reduced or almost vanished
same,"Best Overall Response: Partial Responses, patients (%)",[1],5 (10%)
same,"Best Overall Response: Progressive Disease, patients (%)",[1],11 (22%)
same,"Best Overall Response: Stable Disease, patients (%)",[1],33 (67%)
